Test results as given in patent publication US20230087609A1, “USE OF A SOLUBLE GUANYLATE CYCLASE (sGC) STIMULATOR OR OF A COMBINATION OF A sGC STIMULATOR AND AN sGC ACTIVATOR FOR CONDITIONS WHEREIN THE HEME GROUP OF sGC IS OXIDIZED OR WHEREIN sGC IS DEFICIENT IN HEME” (Universiteit Maastricht, priority 2020, published 2023).

Test system: isolated rat mesenteric arteries
Assay: Relaxation of isolated rat mesenteric arteries (myograph)
Text: The animals were killed humanely via CO2 inhalation (95% CO2, 5% O2) followed by cervical dislocation and exsanguination. The required tissues were dissected and placed in ice-cold oxygenated Krebs' solution (composition in mM: NaCl 119, KCl 4.7, MgSO4 1.17, NaHCO3 25, KH2PO4 1.18, CaCl2 2.5, glucose 5.5, EDTA 0.026, pH 7.4). The collected arteries were carefully freed of fat and connective tissue and cut into 2 mm rings.
The segments were then mounted in a small vessel myograph for the measurement of changes in isometric tension. Two 40 μm stainless steel wires were inserted through the lumen of the segment, one attached to an isometric force transducer and the other to a support driven by a micrometer. The vessels were maintained in Krebs' solution at 37° C. in 7 ml myograph chambers and were continuously bubbled with carbogen (95% O2, 5% CO2). Arteries were allowed to equilibrate for a 30 min period under zero force after which their internal diameter was normalised to an equivalent transmural pressure of 100 mmHg. Changes in isometric tension were reordered using a Myograph Interface Model 610 M version 2.2 (AD Instruments, Pty Ltd) and a chart recorder (Yokogawa, Japan), or using a MacLab® (MacLab® data-acquisition system, AD Instruments Pty Ltd.), interfaced with a Macintosh Computer. Following the 30 min equilibration period at optimal resting tension, the vessels were contracted maximally using a potassium depolarising KPSS solution (composition in mM: KCl 123, MgSO4 1.17, KH2PO4 2.37, CaCl2 2.5, glucose, 5.5 and EDTA 0.026). After the maximum contraction reached a plateau, the vessels were washed thoroughly using Krebs' solution and the tension allowed to return to the baseline. The vessels were then pre-contracted to ≈50% maximum contraction using titrated concentration of the thromboxane A2 mimetic U46619 (0.1-100 nM) and a titrated concentration of the al agonist cirazoline (1-100 nM). Subsequently, cumulative (0.5 log unit) concentration response curve to BAY 58-2667 (1 pM-0.1 μM) were constructed in the presence and absence of 100nM BAY 41-2272 (100 nM). All treatments used in our study including the pre-incubation with 10 μM ODQ for 30 min were added before the 50% pre-contraction with cirazoline and U46619 and only one concentration response curve to any vasodilator was constructed in each segment of the blood vessel. At the completion of each concentration response curve, maximal relaxation was achieved by adding nifedipine 10 μM.
Results are expressed as mean±s.e.m, with n representing the number of samples used from separate subjects. Statistical significance was accepted at the P<0.05 level. Relaxation responses to BAY58-2667 were expressed as a percentage reversal of the level of pre-contraction to U46619, with the response to nifedipine 10 μM defined as 100% relaxation. The individual response curves obtained for each vasodilator were fitted using non-linear regressions (Graphpad Prism®, version 5). In-vitro experiments have been performed with n=3 and n=1. Maximal relaxation values (%) at specific concentrations of the compounds were compared. For multiple comparisons, student's t-test or one-way analysis of variance (ANOVA) was followed by Bonferroni's test. • The results of our experiments are represented by the following non-limiting examples.

Nc1nc(-c2nn(Cc3ccccc3F)c3ncccc23)ncc1C1CC1 [BAY 41-2272, 5-cyclopropyl-2-[1-(2-fluoro-benzyl)-1H-pyrazolo[3,4-b]pyridin-3-yl]-pyrimidin-4-ylamine]
relaxation, compound alone (0.1 μM BAY 41-2272 alone, pre-contraction with U46619): no relaxation
effect on Bay 58-2667 relaxation (nano-molar range): augmented
effect on DEA/NO (NO donor) relaxation (nano-molar range): augmented
